Patent publication US20130059375A1, “METHOD FOR PREPARING ES CELLS” (RIKEN, priority 2010, published 2013)

System: inner cell mass (ICM) of NOD/SCID mouse
Assay: Inventors' earlier attempts to establish ES cells from NOD/SCID inner cell mass by known methods
Type: cell-based
Conditions: factor(s) in medium
Protocol: The present inventors have considered that this problem can be solved by establishing an ES cell from an NOD/SCID background mouse and introducing human gene thereinto to generate the human gene-introduced NOD/SCID background mouse. […] Furthermore, an FGF receptor inhibitor, an MEK activation inhibitor and a GSK3 inhibitor were added to the medium according to the method that established an ES cell from an NOD mouse (non-patent document 4).

Substance: ACTH: known peptide hormone consisting of 39 amino acids (SYSMEHFRWGKPVGKKRRPVKVYPNGAEDESAEAFPLEF; Corticotropin; UniProt P01189 138-176, looked up)
- establishment of ES cell: could not establish
